From ChEMBL document CHEMBL5303573, “Mapping human microbiome drug metabolism by gut bacteria and their genes” (Nature, 2019)

Legend:
[1] = The drug is tested on Clostridium symbiosum strain: ATCC14940 for biotransformation. The drug concentrations were measured before and after a 12-h incubation by liquid-chromatography-coupled mass spectrometry (LC–MS); settings: 2 µM
[2] = bacteroides thetaiotaomicron, 12 h, 2 µM
Description: The drug is tested on Bacteroides thetaiotaomicron strain: 3731 for biotransformation. The drug concentrations were measured before and after a 12-h incubation by liquid-chromatography-coupled mass spectrometry (LC–MS)

[3] = bacteroides eggerthii, 12 h, 2 µM
Description: The drug is tested on Bacteroides eggerthii strain: DSM20697 for biotransformation. The drug concentrations were measured before and after a 12-h incubation by liquid-chromatography-coupled mass spectrometry (LC–MS)

[4] = clostridioides difficile, 12 h, 2 µM
Description: The drug is tested on Clostridium difficile strain: 120 for biotransformation. The drug concentrations were measured before and after a 12-h incubation by liquid-chromatography-coupled mass spectrometry (LC–MS)

[5] = The drug is tested on Blautia luti strain: DSM14534 for biotransformation. The drug concentrations were measured before and after a 12-h incubation by liquid-chromatography-coupled mass spectrometry (LC–MS); type: ADME; design: dose 2 uM, timepoint 0 vs 12 hours; settings: 2 µM
[6] = The drug is tested on Clostridium hathewayi strain: DSM13479 for biotransformation. The drug concentrations were measured before and after a 12-h incubation by liquid-chromatography-coupled mass spectrometry (LC–MS); settings: hungatella hathewayi, 2 µM
[7] = The drug is tested on Eggerthella lenta strain: ATCC25559 for biotransformation. The drug concentrations were measured before and after a 12-h incubation by liquid-chromatography-coupled mass spectrometry (LC–MS); settings: 2 µM
[8] = The drug is tested on Clostridium ramosum strain: DSM1402 for biotransformation. The drug concentrations were measured before and after a 12-h incubation by liquid-chromatography-coupled mass spectrometry (LC–MS); settings: thomasclavelia ramosa, 2 µM
[9] = victivallis vadensis, 12 h, 2 µM
Description: The drug is tested on Victivallis vadensis strain: ATCC BAA-548 for biotransformation. The drug concentrations were measured before and after a 12-h incubation by liquid-chromatography-coupled mass spectrometry (LC–MS)

Compound	Bacterial Biotransformation [1]	Bacterial Biotransformation [2]	Bacterial Biotransformation [3]	Bacterial Biotransformation [4]	Bacterial Biotransformation [5]	Bacterial Biotransformation [6]	Bacterial Biotransformation [7]	Bacterial Biotransformation [8]	Bacterial Biotransformation [9]
O=C(CCCN1CCC(O)(c2ccc(Cl)cc2)CC1)c1ccc(F)cc1 [HALOPERIDOL]	Compound NOT metabolized	Compound NOT metabolized	Compound NOT metabolized	Compound NOT metabolized	Compound NOT metabolized	Compound NOT metabolized	–	–	–
COc1ccc2c(c1)c(CC(=O)O)c(C)n2C(=O)c1ccc(Cl)cc1 [INDOMETHACIN]	Compound metabolized	Compound metabolized	Compound NOT metabolized	–	Compound NOT metabolized	–	Compound NOT metabolized	Compound NOT metabolized	Compound NOT metabolized
CCc1nn(CCCN2CCN(c3cccc(Cl)c3)CC2)c(=O)n1CCOc1ccccc1 [NEFAZODONE]	Compound NOT metabolized	Compound NOT metabolized	Compound NOT metabolized	–	Compound NOT metabolized	–	Compound NOT metabolized	Compound NOT metabolized	Compound NOT metabolized
Cc1ccc(S(=O)(=O)NC(=O)NN2CC3CCCC3C2)cc1 (configuration not stated) [GLICLAZIDE]	Compound NOT metabolized	Compound metabolized	Compound NOT metabolized	–	Compound NOT metabolized	–	Compound NOT metabolized	Compound NOT metabolized	Compound NOT metabolized
C#C[C@]1(OC(C)=O)CC[C@H]2[C@@H]3CCC4=C/C(=N/O)CC[C@@H]4[C@H]3CC[C@@]21CC [NORGESTIMATE]	–	Compound NOT metabolized	Compound NOT metabolized	–	Compound NOT metabolized	Compound NOT metabolized	Compound metabolized	Compound NOT metabolized	Compound NOT metabolized
CN(C(=O)CN(CCO)CC(=O)N(C)C(C)(C)Cc1ccccc1)C(C)(C)Cc1ccccc1 [OXETHAZAINE]	Compound NOT metabolized	Compound NOT metabolized	Compound NOT metabolized	–	Compound NOT metabolized	–	Compound NOT metabolized	Compound NOT metabolized	Compound NOT metabolized
COc1ccc2cc([C@H](C)C(=O)O)ccc2c1 [NAPROXEN]	Compound NOT metabolized	Compound NOT metabolized	Compound NOT metabolized	Compound NOT metabolized	Compound NOT metabolized	Compound NOT metabolized	Compound NOT metabolized	–	Compound NOT metabolized
CNCC[C@H](Oc1cccc2ccccc12)c1cccs1 [DULOXETINE]	Compound NOT metabolized	Compound NOT metabolized	Compound NOT metabolized	Compound metabolized	Compound NOT metabolized	Compound NOT metabolized	Compound NOT metabolized	Compound NOT metabolized	Compound NOT metabolized
NC(=O)N1c2ccccc2CC(=O)c2ccccc21 [OXCARBAZEPINE]	Compound metabolized	Compound NOT metabolized	Compound NOT metabolized	–	Compound metabolized	–	Compound metabolized	Compound metabolized	Compound NOT metabolized
COc1ccccc1OCC(O)COC(N)=O (configuration not stated) [METHOCARBAMOL]	Compound NOT metabolized	Compound NOT metabolized	Compound NOT metabolized	–	Compound NOT metabolized	–	Compound NOT metabolized	Compound NOT metabolized	Compound NOT metabolized
CC(C)(C(=O)O)c1ccc(C(O)CCCN2CCC(C(O)(c3ccccc3)c3ccccc3)CC2)cc1 (configuration not stated) [FEXOFENADINE]	Compound NOT metabolized	Compound NOT metabolized	Compound NOT metabolized	Compound NOT metabolized	Compound NOT metabolized	–	–	–	–
CCCN1C[C@H](CSC)C[C@@H]2c3cccc4[nH]cc(c34)C[C@H]21.CS(=O)(=O)O [PERGOLIDE MESYLATE]	Compound NOT metabolized	Compound NOT metabolized	Compound NOT metabolized	–	Compound NOT metabolized	–	Compound NOT metabolized	Compound NOT metabolized	Compound NOT metabolized
CC1Cc2ccccc2N1NC(=O)c1ccc(Cl)c(S(N)(=O)=O)c1 (configuration not stated) [INDAPAMIDE]	–	Compound NOT metabolized	Compound NOT metabolized	Compound NOT metabolized	Compound NOT metabolized	Compound NOT metabolized	–	Compound NOT metabolized	Compound NOT metabolized
COC(=O)Nc1nc2ccc(C(=O)c3ccccc3)cc2[nH]1 [MEBENDAZOLE]	Compound NOT metabolized	Compound NOT metabolized	Compound metabolized	Compound NOT metabolized	–	Compound NOT metabolized	–	Compound NOT metabolized	Compound NOT metabolized
CCC(C)n1ncn(-c2ccc(N3CCN(c4ccc(OCC5COC(Cn6cncn6)(c6ccc(Cl)cc6Cl)O5)cc4)CC3)cc2)c1=O (configuration not stated) [ITRACONAZOLE]	Compound NOT metabolized	Compound NOT metabolized	Compound NOT metabolized	–	Compound NOT metabolized	–	Compound NOT metabolized	Compound NOT metabolized	Compound NOT metabolized
Cc1nc(Nc2ncc(C(=O)Nc3c(C)cccc3Cl)s2)cc(N2CCN(CCO)CC2)n1.O [DASATINIB]	Compound NOT metabolized	Compound NOT metabolized	Compound NOT metabolized	–	Compound NOT metabolized	–	Compound NOT metabolized	Compound NOT metabolized	Compound NOT metabolized
